Experimental data published in US20240426807A1, “SCREENING SYSTEM” (Givaudan SA, priority 2021, published 2024).
Entries after “also recorded” stand apart in the source; their conditions may differ.

Columns and labels:
Type in all cases: cell-based
[1] = biological target: T1, OR10G7 (Homo sapiens, UniProt Q8NGN6, T5S); assay: Ligand-induced OR-dependent puromycin resistance, OR10G7 cells; settings: HEK293T, pGL4.29-CRE-Puro-Hygro-OR with OR10G7; musk ketone 10 μM, eugenol or isoeugenol 1 μM, ultravanil or vanitrope 100 μM; puromycin 0.015-16 μg/ml; PrestoBlue viability day 4
T1 construct: expressed in transfected cells
T1 sequence (Q8NGN6 1-311 T5S): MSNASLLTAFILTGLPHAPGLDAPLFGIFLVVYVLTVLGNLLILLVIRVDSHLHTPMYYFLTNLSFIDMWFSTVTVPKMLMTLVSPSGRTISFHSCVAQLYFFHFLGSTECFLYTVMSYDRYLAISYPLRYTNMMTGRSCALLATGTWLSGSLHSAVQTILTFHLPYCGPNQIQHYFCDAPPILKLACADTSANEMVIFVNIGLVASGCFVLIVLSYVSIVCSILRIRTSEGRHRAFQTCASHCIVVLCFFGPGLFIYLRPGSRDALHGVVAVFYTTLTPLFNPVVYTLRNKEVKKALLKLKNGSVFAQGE
Protocol: (§1) Stable clones selected with hygromycin containing a stable insertion of the pGL4.29-CRE-Puro-Hygro-OR construct described in Example 1 with either one of the receptors OR10G7, OR10G9 or OR5AN1 (NCBI Genbank Gene ID 390265, 219870 and 390195) were plated at a density of 3000 cells/per well in 200 μl Dubelcco's Modified Eagle medium (DMEM) in polyethyleneimide-coated, white 96 well microtiter plates with a transparent bottom. After cells were allowed to adhere for 24 h, they were exposed to different odorants (musk ketone at 10 μM, eugenol or isoeugenol at 1 μM, ultravanil or vanitrope at 100 μM). 7 h after odorant addition, 100 μl of the medium was removed and replaced with fresh medium with the same odorant concentrations and, in addition, puromycin to reach a final concentration of 0.015-16 μg/ml in 11 twofold dilution steps (day 1 of selection). On day 2 and 3, 100 μl of the medium was again removed and replaced with fresh medium with the same concentration of odorant and puromycin. On day 4 of the selection, medium from each well was removed completely, 100 ul PrestoBlue® cell viability reagent (ThermoFisher Scientific, Catalog No: 14200-083) diluted in phosphate buffered saline was added to each well and cells were incubated at 37° C. until a color change was visible in the wells containing no puromycin. The fluorescence was determined at 560 excitation and 590 nm emission to assess relative cell metabolic activity, which is the net result of cell growth and cell killing in presence of the different puromycin concentrations. The result was expressed as % viability relative to controls with no cells (0%) and cells treated with olfactory ligand only (100%).

[2] = biological target: T2, OR10G9 (Homo sapiens, UniProt Q8NGN4); assay: Ligand-induced OR-dependent puromycin resistance, OR10G9 cells; settings: HEK293T, pGL4.29-CRE-Puro-Hygro-OR with OR10G9; musk ketone 10 μM, eugenol or isoeugenol 1 μM, ultravanil or vanitrope 100 μM; puromycin 0.015-16 μg/ml; PrestoBlue viability day 4
T2 construct: expressed in transfected cells
T2 sequence (Q8NGN4 1-311): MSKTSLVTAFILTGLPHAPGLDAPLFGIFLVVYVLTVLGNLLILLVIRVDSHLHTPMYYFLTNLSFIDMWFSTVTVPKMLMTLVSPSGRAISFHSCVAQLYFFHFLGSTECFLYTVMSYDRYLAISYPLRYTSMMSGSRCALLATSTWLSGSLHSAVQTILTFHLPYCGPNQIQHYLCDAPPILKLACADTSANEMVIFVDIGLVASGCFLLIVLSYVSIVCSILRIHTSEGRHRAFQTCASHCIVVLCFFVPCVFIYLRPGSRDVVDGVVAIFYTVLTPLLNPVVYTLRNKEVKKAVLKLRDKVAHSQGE
Protocol: as §1

[3] = biological target: T3, pool of cells with OR5A1, OR5A2, OR5AN1, OR6Y1, OR10G4, OR10G7 or OR10G9 (Homo sapiens, UniProt Q8NGN3); assay: Selection of cognate-receptor cells from a pool of OR-expressing cells with the target ligand and puromycin; settings: 100 μM vanitrope, puromycin 1 μg/ml, pool of 7 OR transfections
T3 construct: expressed in transfected cells; host or cells: HEK293T stably expressing RTP1S and RTP2; 7 separate transfections pooled
T3 sequence (Q8NGN3 1-311): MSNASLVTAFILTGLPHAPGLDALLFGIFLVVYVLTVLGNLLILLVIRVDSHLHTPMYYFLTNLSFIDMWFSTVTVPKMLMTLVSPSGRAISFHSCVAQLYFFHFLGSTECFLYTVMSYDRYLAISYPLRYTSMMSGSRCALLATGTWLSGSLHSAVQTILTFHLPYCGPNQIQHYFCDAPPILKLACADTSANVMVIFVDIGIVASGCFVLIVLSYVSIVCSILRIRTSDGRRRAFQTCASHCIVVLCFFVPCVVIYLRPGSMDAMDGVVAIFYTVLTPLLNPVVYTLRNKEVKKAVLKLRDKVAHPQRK
Protocol: For many ligands the cognate OR receptors are not known (“orphan receptors”), or it is unknown among a pool of receptors, which one has the best affinity for a ligand of interest, e.g. a perfumery note of particular interest. Thus, the ligand-induced selection pressure can be used to enrich a specific OR-expressing cell from a pool of OR-expressing cells in the presence of a ligand of interest. HEK293T cells stably expressing RTP1S and RTP2 were seeded into 7 wells of 6-well plates at 330,000 cells/well.
The next day, the cells of each well were transfected with 2 μg of a PvuI-linearized pGL4.29-CRE-Puro-Hygro-OR construct harboring one of the receptors OR5A1 (NCBI Genbank Gene ID: 219982), OR5A2 (NCBI Genbank Gene ID: 219981), OR5AN1 NCBI Genbank Gene ID: 390195, SEQ ID NO: 70), OR6Y1 (NCBI Genbank Gene ID: 391112), OR10G4 (NCBI Genbank Gene ID: 390264, SEQ ID NO: 72), OR10G7 (NCBI Genbank Gene ID: 390265, SEQ ID NO: 71), or OR10G9 (NCBI Genbank Gene ID: 219870). 24 h after transfection, the cells of all 7 transfections were harvested and pooled. 350 cells of this pool of cells with different OR genes inserted were then seeded into each well of seven 96-well plates.
3 days later, cells were stimulated with ligands for either OR5AN1 (10 μM musk ketone), OR10G7 (1 μM eugenol), or OR10G4 (100 μM vanitrope). One plate was treated with DMSO only. 6h after the addition of the OR ligands, puromycin was added to each plate at a final concentration of 1 μg/ml. On every day during the following week, the medium on all plates was replaced with fresh medium containing the corresponding ligand and puromycin. The plates were then searched for wells containing only a single colony of puromycin-resistant cells. The cells of those colonies were transferred to larger plates and grown until they had multiplied to about 8 Mio cells. The genomic DNA of 2 Mio cells of each clone were isolated using the Puregene kit according to the manufacturer's protocol. […]

[4] = biological target: T4, OR5AN1 (Homo sapiens, UniProt Q8NGI8); assay: Ligand-induced OR-dependent puromycin resistance, OR5AN1 cells; settings: HEK293T, pGL4.29-CRE-Puro-Hygro-OR with OR5AN1; musk ketone 10 μM, eugenol or isoeugenol 1 μM, ultravanil 100 μM; puromycin 0.015-16 μg/ml; PrestoBlue viability day 4
T4 construct: expressed in transfected cells
T4 sequence (Q8NGI8 1-311): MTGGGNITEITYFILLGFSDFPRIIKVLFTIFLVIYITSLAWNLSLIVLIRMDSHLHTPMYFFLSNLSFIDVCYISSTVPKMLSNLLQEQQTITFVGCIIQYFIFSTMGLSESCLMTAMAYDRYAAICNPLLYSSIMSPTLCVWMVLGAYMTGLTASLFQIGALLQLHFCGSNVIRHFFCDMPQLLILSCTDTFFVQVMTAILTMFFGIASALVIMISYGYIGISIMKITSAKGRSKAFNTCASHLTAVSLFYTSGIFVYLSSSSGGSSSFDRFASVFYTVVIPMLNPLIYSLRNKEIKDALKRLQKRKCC
Protocol: as §1

[5] = biological target: T4, OR5AN1; assay: Ligand-induced blasticidin resistance, OR5AN1 cells (pGL4.29-CRE-BLAST-OR); settings: HEK293T OR5AN1, odorant 10 μM, blasticidin 0.5-256 μg/ml, PrestoBlue viability day 4
From the text: To generate a vector allowing positive selection of cell clones with a functional expression of a specific OR gene, a blasticidin resistance gene was placed downstream of SEQ ID NO: 4. The pGL4.29-CRE-Puro-OR vector generated as described in Example 1 was digested with BgIII and FseI to remove the comprised basal promoter and the complete puromycin resistance gene. The removed basal promoter sequence was amplified with the primers […] (SEQ ID NO: 28), […] (SEQ ID NO: 63), and the blasticidin S deaminase (bsd, SEQ ID NO: 64) encoding sequence was amplified by PCR using the primers […] (SEQ ID NO: 66) […] (SEQ ID NO: 67). The two overlapping PCR products were joined by fusion PCR using primers […] (SEQ ID NO: 28) and […] (SEQ ID NO: 68). The resulting DNA fragment was digested with BgIII/FseI and ligated into the digested vector to generate pGL4.29-CRE-Blast-OR.
This vector was used to generate stable cell lines as described in Example 1.
Stable clones containing a stable insertion of the pGL4.29-CRE-BLAST-OR construct with the receptor OR5AN1 (NCBI Genbank Gene ID: 390195) were then plated at a density of 3000 cells/per well in 100 μl Dubelcco's Modified Eagle medium (DMEM) in polyethyleneimide-coated, white 96 well microtiter plates with a transparent bottom. After cells were allowed to adhere for 24 h, 50 μl of medium containing different odorants (musk ketone or ethyl vanillin at 40 μM) was added to each well resulting in an odorant concentration of 13.3 μM. 6 h after odorant addition, 50 μl of medium containing blasticidin was added to reach a final concentration of 0.5-256 μg/ml in 10 two-fold dilution steps (day 1 of selection). This step further diluted the odorant to 10 μM. On day 4 of the selection (72 h after blasticidin addition), medium from each well was removed completely, 100 μl PrestoBlue® cell viability reagent (ThermoFisher Scientific, Catalog No: 14200-083) diluted in phosphate buffered saline containing 1 mg/ml glucose was added to each well and cells were incubated at 37° C. until a color change was visible in the wells containing no blasticidin. The fluorescence was determined at 560 excitation and 590 nm emission to assess relative cell metabolic activity, which is the net result of cell growth and cell killing in presence of the different blasticidin concentrations. The result was expressed as % viability relative to controls with no cells (0%) and cells treated with olfactory ligand only (100%).

[6] = biological target: T5, OR5A2 (clone 3) (Homo sapiens, UniProt Q8NGI9); assay: Ligand-induced puromycin resistance of isolated clone 3 containing OR5A2; settings: for puromycin resistance of clone 3 in presence of odorant: clone 3 (OR5A2), 11 concentrations of puromycin, co-treated with olfactory ligands
T5 construct: expressed in transfected cells; clone 3 selected with musk ambrette and puromycin
T5 sequence (Q8NGI9 with tags, fused parts or gaps): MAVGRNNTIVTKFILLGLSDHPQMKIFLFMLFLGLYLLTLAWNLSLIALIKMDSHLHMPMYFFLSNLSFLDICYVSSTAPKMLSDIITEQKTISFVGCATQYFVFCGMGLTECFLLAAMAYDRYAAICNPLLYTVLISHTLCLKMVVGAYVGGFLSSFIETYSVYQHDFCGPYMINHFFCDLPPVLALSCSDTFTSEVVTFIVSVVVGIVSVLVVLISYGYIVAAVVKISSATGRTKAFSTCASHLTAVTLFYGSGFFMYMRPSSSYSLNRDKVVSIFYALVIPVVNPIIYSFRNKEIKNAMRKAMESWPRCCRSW

SMILES	puromycin resistance in presence of odorant versus solvent control [1]	puromycin resistance in presence of odorant versus solvent control [2]	puromycin resistance in presence of odorant versus solvent control [4]	puromycin resistance of clone 3 in presence of odorant [6]	also measured
C/C=C/c1ccc(OCC)c(O)c1 [vanitrope, propenyl guaethol]	increased resistance to puromycin; also recorded: strongly enhanced puromycin resistance	increased resistance to puromycin; also recorded: selectively enhanced resistance	–	–	colonies selected with the ligand that contained OR10G4 [3]: 8 out of 8
CCOc1cc(C)ccc1O [ultravanil, vanilla cresol]	increased resistance to puromycin; also recorded: strongly enhanced puromycin resistance	increased resistance to puromycin; also recorded: selectively enhanced resistance	do not increase resistance over solvent control; also recorded: the resistance was equal to the solvent control	–	–
CCOc1cc(C=O)ccc1O [ethyl vanillin]	–	–	–	–	blasticidin resistance in presence of odorant versus solvent control [5]: equally sensitive to blasticidin as in presence of the solvent control; blasticidin resistance in presence of odorant versus solvent control ([5]; listed as ethylvanillin): does not increase resistance over solvent control
CC(OC(C)(C)COC(=O)C1CC1)C1CCCC(C)(C)C1 (centres unmarked) [serenolide]	–	–	–	increased resistance to puromycin	–
CC=Cc1ccc(O)c(OC)c1 [isoeugenol]	increased resistance to puromycin; also recorded: strongly enhanced puromycin resistance	no increased resistance	do not increase resistance over solvent control; also recorded: the resistance was equal to the solvent control	–	–
COc1c(C(C)(C)C)cc([N+](=O)[O-])c(C)c1[N+](=O)[O-] [musk ambrette]	–	–	–	increased resistance to puromycin	survival of clone 3 under puromycin treatment with ligand ([6]; musk ambrette 30 μM, puromycin 3 μg/ml, continuous exposure): able to survive puromycin treatment in presence of the ligand musk ambrette but not in its absence
